# Measured values taken from patent publication US4057684A, “Alkyl amino-glucopyranoside derivative and process for producing the same” (priority 1975, dated 1977).
# Tests used:
# [1] = tested on: Nakahara-Fukuoka sarcoma (NFS); assay: antitumor effect against Nakahara-Fukuoka sarcoma (NFS) implanted in mice; type: in vivo, mouse (ICR)
# Text: (§1) Results of pharmacological studies for amino-glucopyranoside [I] according to the invention are described below. The test compounds which were used included methyl N-carbamyl-N'-(2-chloroethyl)-N'-nitroso-2-amino-2-deoxy-α-D-glucopyranoside and methyl N-carbamyl-N'-(2-chloroethyl)-N'-nitroso-6-amino-6-deoxy-α-D-glucopyranoside (hereinafter abbreviated to 2MCαG and 6MCαG, respectively). The control compounds which were employed were 1-(2-chloroethyl)-3-cyclohexyl-1-nitrosoourea (hereinafter abbreviated to CCNU), which had been widely applied as a control compound in such a pharmacological test of the streptozotocin derivatives, and GCNU referred to previously. The tumor systems which were used were leukemia L-1210, Nakahara-Fukuoka sarcoma, adenocarcinoma-755, ascites sarcoma 180 and Ehrlich ascites carcinoma (hereinafter abbreviated to L-1210, NFS, Ca-755, S-180A and EAC, respectively), and the antitumor activities were determined by a procedure of the National Cancer Center, Tokyo (A. Hoshi et al.: Farumashia 9, 464(1973)). The test animals which were used were ICR and BDF1 mice.
# (§2) ^a Treatment was initiated 24 hr after implantation of tumor (day 1):
# (§3) D1~5 = qd, day 1~5; D1 = day 1 only.
# (§4) ^b T/C is expressed as the tumor weight ratio in solid tumors or tota
# (§5) packed cell volume ratio in ascites tumors of treated/control.
# [2] = tested on: adenocarcinoma-755 (Ca-755); assay: antitumor effect against adenocarcinoma-755 (Ca-755) implanted in mice; type: in vivo, mouse (BDF1)
# Text: as §1, §2, §3, §4, §5
# [3] = peripheral white blood cell counts (bone marrow toxicity) and survival in normal male ICR mice; type: in vivo, mouse (ICR)
# Experimental: Such peripheral white blood cell counts were performed as follows: Normal male ICR mice were used in groups of tens and the test compounds for treatment were made into their respective solutions. 2MCαG and 6MCαG were dissolved in physiological saline solutions, while CCNU and GCNU were suspended in 0.5% CMC aqueous solution and 50% PEG aqueous solution, respectively. A single administration at volume of 1 ml per 100 g body weight of animal (0.1 ml/10 g) was given intraperitoneally, and the peripheral white blood cell counts were performed 3, 8 and 15 days after administration of the test compounds.
# [4] = tested on: ascites sarcoma 180 (S-180A); assay: antitumor effect against ascites sarcoma 180 (S-180A) implanted in mice; type: in vivo, mouse (ICR)
# Text: as §1, §2, §3, §4, §5
# [5] = tested on: Ehrlich ascites carcinoma (EAC); assay: antitumor effect against Ehrlich ascites carcinoma (EAC) implanted in mice; type: in vivo, mouse (ICR)
# Text: as §1, §2, §3, §4, §5
# leukemia L-1210 = assay: increase in life span and survival of leukemia L-1210 implanted mice; type: in vivo, mouse (BDF1)
# Text: as §1, §2, §3
# ^d % increase in life span (mean survival time) over controls.
# ^e 60 days survivors/total in treated group.
# [6] = blood sugar level / diabetogenic activity; type: in vivo, rat (male Wister); conditions: rat, in vivo
# bacteria = assay: antibacterial activity, broth dilution method
# [7] = tested on: solid as well as ascites tumor systems; assay: antitumor activity in the tumor systems (overall); type: in vivo, mouse; conditions: for antitumor activity compared with its α-anomer: vs α-anomer; for antitumor activity compared with the compounds of examples 1 and 4: mouse, in vivo
# Text: as §1
# [8] = 12.0 mg/kg/day ip D1~5, ICR mice
# [9] = 20.0 mg/kg/day ip D1~5, ICR mice
# [10] = 10.0 mg/kg/day ip D1~5, BDF1 mice
# [11] = 25.0 mg/kg/day ip D1~5, BDF1 mice
# [12] = 8.5 mg/kg/day ip, 5 successive days, BDF1 mice
# [13] = 12.5 mg/kg/day ip D1~5, ICR mice
# [14] = 3.2 mg/kg/day ip, 5 successive days
compound,measurement,setting,value
"O=NN(CCCl)C(=O)NC1CCCCC1 [CCNU, 1-(2-chloroethyl)-3-cyclohexyl-1-nitrosoourea, reference compound]",Activity,[1]; [8],+ (70~51% = +)
same,T/C,[1]; [8],57.5%
same,Activity,[1]; [9],++ (50~21% = ++)
same,T/C,[1]; [9],48.3%
same,Activity,[2]; [10],+++ (20~0% = +++)
same,T/C,[2]; [10],15.0%
same,Activity,[2]; [11],Toxic
same,T/C,[2]; [11],1.1%
same,died/used,[2]; [11],6/6
same,Death rate (death/used),[3]; 20 mg/kg ip single,0/10
same,Average count of WBC,"[3]; 20 mg/kg ip single, day 3",38.7±2.9 x 10^2 WBC/mm^3
same,Average count of WBC,"[3]; 20 mg/kg ip single, day 8",81.8±5.0 x 10^2 WBC/mm^3
same,Average count of WBC,"[3]; 20 mg/kg ip single, day 15",100.4±9.8 x 10^2 WBC/mm^3
same,Death rate (death/used),[3]; 40 mg/kg ip single,1/10
same,Average count of WBC,"[3]; 40 mg/kg ip single, day 3",31.5±1.7 x 10^2 WBC/mm^3
same,Average count of WBC,"[3]; 40 mg/kg ip single, day 8",59.0±6.0 x 10^2 WBC/mm^3
same,Average count of WBC,"[3]; 40 mg/kg ip single, day 15",77.9±9.0 x 10^2 WBC/mm^3
same,Death rate (death/used),[3]; 60 mg/kg ip single,9/10
same,Average count of WBC,"[3]; 60 mg/kg ip single, day 3",27.9±3.7 x 10^2 WBC/mm^3
same,Average count of WBC,"[3]; 60 mg/kg ip single, day 8",60.0 x 10^2 WBC/mm^3
same,Average count of WBC,"[3]; 60 mg/kg ip single, day 15",36.0 x 10^2 WBC/mm^3
same,Death rate (death/used),[3]; 80 mg/kg ip single,10/10
same,Average count of WBC,"[3]; 80 mg/kg ip single, day 3",20.4±2.5 x 10^2 WBC/mm^3
CO[C@H]1O[C@H](CNC(=O)N(CCCl)N=O)[C@@H](O)[C@H](O)[C@H]1NC(=O)N(CCCl)N=O [Example 3],Activity,[1]; [12],++ or +++
same,Activity,[2]; [12],++ or +++
same,Activity,[4]; [12],++ or +++
same,Activity,[5]; [12],++ or +++
same,ILS,"leukemia L-1210; 2.2 mg/kg/day ip, 5 successive days",400%
same,ILS,leukemia L-1210; 4.5 mg/kg/day orally,370%
same,60-days survivors,"leukemia L-1210; single ip, 7~15 mg/kg",all six animals tested survived
same,ILS,"leukemia L-1210; single ip, 7~15 mg/kg",717%
same,bone marrow toxicity compared with CCNU,"[3]; mouse, in vivo",less than that of CCNU
same,bone marrow toxicity compared with GCNU,"[3]; mouse, in vivo",comparable to GCNU
same,diabetogenic activity,[6],nondiabetogenic
same,antibacterial activity,bacteria,void of antibacterial activities
"CO[C@@H]1O[C@H](CO)[C@@H](O)[C@H](O)[C@H]1NC(=O)N(CCCl)N=O [Example 4, methyl N-carbamyl-N'-(2-chloroethyl)-N'-nitroso-2-amino-2-deoxy-β-D-glucopyranoside]",Activity,[1]; [13],++ or +++
same,Activity,"[2]; 12.5 mg/kg/day ip D1~5, BDF1 mice",++ or +++
same,accumulation of ascites tumor cells,[4]; [14],ascites cells accumulation was not detectable
same,Activity,[4]; [13],++ or +++
same,accumulation of ascites tumor cells,[5]; [14],ascites cells accumulation was not detectable
same,Activity,[5]; [13],++ or +++
same,ILS,leukemia L-1210; 3.2 mg/kg/day ip D1~5,480%
same,ILS,leukemia L-1210; 6.3 mg/kg/day po D1~5,385%
same,60-days survivors,"leukemia L-1210; single ip, 8~25 mg/kg",all six test animals surviving after 60-days
same,ILS,"leukemia L-1210; single ip, 8~25 mg/kg",717%
same,"bone marrow toxicity, less than the α-anomer",[3]; LD10 dosage,5~20%
same,"peripheral white blood cell count, higher than that of the α-anomer","[3]; LD10 dosage, 3, 8 and 15 days",5~20%
same,diabetogenic activity,[6],not found to be either diabetogenic
same,antibacterial activity,bacteria,not found to be either diabetogenic or exhibited any antibacterial activities
same,antitumor activity compared with its α-anomer,[7],110~120%
"CO[C@@H]1O[C@H](CNC(=O)N(CCCl)N=O)[C@@H](O)[C@H](O)[C@H]1NC(=O)N(CCCl)N=O [Example 7, methyl di-N,N'-[N-(2-chloroethyl)-N-nitroso-carbamyl]-2,6-di-amino-2,6-di-deoxy-3-D-glucopyranoside]",bone marrow toxicity compared with its α-anomer,[3]; vs compound of example 3,reduced bone marrow toxicities
same,diabetogenic activity,[6],neither diabetogenic nor antibacterial activities
same,antibacterial activity,bacteria,neither diabetogenic nor antibacterial activities
same,antitumor activity compared with its α-anomer,[7],5~20%
"CCCCO[C@@H]1O[C@H](CO)[C@@H](O)[C@H](O)[C@H]1NC(=O)N(CCCl)N=O [Example 9 3-anomer, n-butyl N-carbamyl-N'-(2-chloroethyl)-N'-nitroso-2-amino-2-deoxy-3-D-glucopyranoside]",bone marrow toxicity compared with the compounds of examples 1 and 4,"[3]; mouse, in vivo",same low levels
same,diabetogenic activity,[6],neither diabetogenic nor antibacterial activities
same,antibacterial activity,bacteria,neither diabetogenic nor antibacterial activities
same,antitumor activity compared with the compounds of examples 1 and 4,[7],same level of anitumor activity
"CCCCO[C@H]1O[C@H](CO)[C@@H](O)[C@H](O)[C@H]1NC(=O)N(CCCl)N=O [Example 9 α-anomer, n-butyl N-carbamyl-N'-(2-chloroethyl)-N'-nitroso-2-amino-2-deoxy-α-D-glucopyranoside]",bone marrow toxicity compared with the compounds of examples 1 and 4,"[3]; mouse, in vivo",same low levels
same,diabetogenic activity,[6],neither diabetogenic nor antibacterial activities
same,antibacterial activity,bacteria,neither diabetogenic nor antibacterial activities
same,antitumor activity compared with the compounds of examples 1 and 4,[7],same level of anitumor activity
"CO[C@@H]1O[C@H](CNC(=O)N(CCCl)N=O)[C@@H](O)[C@H](O)[C@H]1O [Example 12, methyl N-carbamyl-N'-(2-chloroethyl)-N'-nitroso-6-amino-6-deoxy-β-D-glucopyranoside]",reduced bone marrow toxicity compared with its α-anomer,[3]; vs α-anomer,110~120%
same,diabetogenic activity,[6],neither diabetogenic nor antibacterial activities
same,antibacterial activity,bacteria,neither diabetogenic nor antibacterial activities
same,antitumor activity compared with its α-anomer,[7],110~120%
